# Experimental data published in paper PMC6856185, “Piezo1 channel activation mimics high glucose as a stimulator of insulin release” (Scientific Reports, 2019).
# Target: T1, Piezo1 (Rattus norvegicus, UniProt Q0KL00)
# T1 construct: native channel in INS-1 832/13 and BRIN-BD11 rat β-cell lines
# Assay: fura-2 Ca2+ influx and whole-cell patch-clamp in INS-1 cells; Piezo1 siRNA reduced Yoda1-induced insulin release
# Assay type: cell-based
# T1 sequence (Q0KL00 whole entry): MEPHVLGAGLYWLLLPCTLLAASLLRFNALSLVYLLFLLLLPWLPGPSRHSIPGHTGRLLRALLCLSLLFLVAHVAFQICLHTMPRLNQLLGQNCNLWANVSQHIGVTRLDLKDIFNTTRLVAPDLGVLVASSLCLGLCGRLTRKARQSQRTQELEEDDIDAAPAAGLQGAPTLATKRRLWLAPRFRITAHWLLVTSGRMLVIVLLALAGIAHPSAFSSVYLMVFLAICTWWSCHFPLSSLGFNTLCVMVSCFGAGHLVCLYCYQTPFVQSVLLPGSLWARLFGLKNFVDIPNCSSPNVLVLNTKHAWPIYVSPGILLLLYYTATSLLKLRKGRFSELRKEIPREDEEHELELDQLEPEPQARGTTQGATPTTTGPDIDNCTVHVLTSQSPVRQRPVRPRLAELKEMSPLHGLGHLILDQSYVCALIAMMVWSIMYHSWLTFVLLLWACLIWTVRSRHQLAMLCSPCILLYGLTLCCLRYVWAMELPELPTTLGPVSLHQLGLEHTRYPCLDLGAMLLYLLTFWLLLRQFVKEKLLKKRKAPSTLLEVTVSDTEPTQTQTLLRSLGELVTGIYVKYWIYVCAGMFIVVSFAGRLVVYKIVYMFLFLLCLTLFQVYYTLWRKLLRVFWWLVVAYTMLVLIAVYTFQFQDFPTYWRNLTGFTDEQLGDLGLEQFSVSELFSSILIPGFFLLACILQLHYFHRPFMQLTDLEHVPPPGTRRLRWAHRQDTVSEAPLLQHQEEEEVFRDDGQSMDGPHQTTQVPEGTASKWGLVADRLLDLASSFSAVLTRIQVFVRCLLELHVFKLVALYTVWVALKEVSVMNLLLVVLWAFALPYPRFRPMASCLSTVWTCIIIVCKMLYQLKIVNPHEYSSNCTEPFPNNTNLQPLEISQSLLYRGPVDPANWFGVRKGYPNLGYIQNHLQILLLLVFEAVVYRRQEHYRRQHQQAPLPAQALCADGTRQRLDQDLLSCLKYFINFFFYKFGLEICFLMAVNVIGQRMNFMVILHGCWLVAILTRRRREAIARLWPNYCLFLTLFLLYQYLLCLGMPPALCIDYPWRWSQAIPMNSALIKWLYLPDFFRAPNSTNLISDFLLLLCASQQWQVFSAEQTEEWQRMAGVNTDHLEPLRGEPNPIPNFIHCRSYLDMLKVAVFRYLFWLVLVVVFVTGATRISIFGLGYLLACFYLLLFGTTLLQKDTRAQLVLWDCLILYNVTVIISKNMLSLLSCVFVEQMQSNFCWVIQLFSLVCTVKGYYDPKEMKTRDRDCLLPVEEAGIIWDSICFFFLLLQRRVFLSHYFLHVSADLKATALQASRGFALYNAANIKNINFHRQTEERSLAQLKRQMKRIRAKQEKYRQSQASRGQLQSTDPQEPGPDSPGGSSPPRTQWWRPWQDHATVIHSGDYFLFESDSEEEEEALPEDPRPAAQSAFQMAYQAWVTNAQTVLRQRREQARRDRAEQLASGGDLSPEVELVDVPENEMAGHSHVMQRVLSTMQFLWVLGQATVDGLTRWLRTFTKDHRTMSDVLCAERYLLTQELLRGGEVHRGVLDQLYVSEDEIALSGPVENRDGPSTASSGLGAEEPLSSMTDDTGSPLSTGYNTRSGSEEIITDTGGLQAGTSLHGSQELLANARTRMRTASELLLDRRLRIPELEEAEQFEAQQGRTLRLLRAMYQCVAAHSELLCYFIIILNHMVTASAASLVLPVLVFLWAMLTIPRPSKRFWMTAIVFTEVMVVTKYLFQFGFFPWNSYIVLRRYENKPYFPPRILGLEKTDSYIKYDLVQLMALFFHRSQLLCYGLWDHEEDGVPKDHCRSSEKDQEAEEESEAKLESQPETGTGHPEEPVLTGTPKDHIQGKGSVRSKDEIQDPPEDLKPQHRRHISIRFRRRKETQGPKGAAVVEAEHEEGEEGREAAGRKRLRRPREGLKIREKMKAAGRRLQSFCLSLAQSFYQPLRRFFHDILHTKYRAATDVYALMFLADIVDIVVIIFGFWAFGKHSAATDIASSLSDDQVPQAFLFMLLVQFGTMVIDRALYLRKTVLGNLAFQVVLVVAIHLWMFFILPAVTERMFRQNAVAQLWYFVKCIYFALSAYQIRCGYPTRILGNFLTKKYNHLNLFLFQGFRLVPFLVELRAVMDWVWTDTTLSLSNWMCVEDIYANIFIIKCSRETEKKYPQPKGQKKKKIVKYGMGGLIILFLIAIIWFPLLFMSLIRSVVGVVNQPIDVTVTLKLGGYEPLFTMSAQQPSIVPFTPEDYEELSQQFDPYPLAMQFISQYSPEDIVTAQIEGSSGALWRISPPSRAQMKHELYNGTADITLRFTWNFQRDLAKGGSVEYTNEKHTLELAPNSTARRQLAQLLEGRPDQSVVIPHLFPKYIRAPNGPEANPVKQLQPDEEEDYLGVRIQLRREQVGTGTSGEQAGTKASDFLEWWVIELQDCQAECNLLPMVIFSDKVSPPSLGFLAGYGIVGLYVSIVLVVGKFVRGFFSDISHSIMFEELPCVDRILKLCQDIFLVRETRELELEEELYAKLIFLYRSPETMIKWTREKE
structure (smiles),measurement,value
Clc1cccc(Cl)c1CSc1nnc(-c2cnccn2)s1 [Yoda1],EC50,~4 µM
